Data taken from patent publication US7091202B2, “4-arylspirocycloalkyl-2-aminopyrimidine carboxamide KCNQ potassium channel modulators” (Bristol-Myers Squibb Company, priority 2004, dated 2006).

target: T1, hQ23 (HEK-293 cell line stably transfected with one of the members of the KCNQ family) (Homo sapiens, UniProt O43525+O43526); assay: Thallium flux assay for KCNQ channel blockers (FLIPR, BTC dye); assay type: cell-based; details: Table 3; thallium flux, HEK-293
T1 construct: expressed in transfected cells; host or cells: HEK-293, stably transfected
T1 sequence (O43526 whole entry): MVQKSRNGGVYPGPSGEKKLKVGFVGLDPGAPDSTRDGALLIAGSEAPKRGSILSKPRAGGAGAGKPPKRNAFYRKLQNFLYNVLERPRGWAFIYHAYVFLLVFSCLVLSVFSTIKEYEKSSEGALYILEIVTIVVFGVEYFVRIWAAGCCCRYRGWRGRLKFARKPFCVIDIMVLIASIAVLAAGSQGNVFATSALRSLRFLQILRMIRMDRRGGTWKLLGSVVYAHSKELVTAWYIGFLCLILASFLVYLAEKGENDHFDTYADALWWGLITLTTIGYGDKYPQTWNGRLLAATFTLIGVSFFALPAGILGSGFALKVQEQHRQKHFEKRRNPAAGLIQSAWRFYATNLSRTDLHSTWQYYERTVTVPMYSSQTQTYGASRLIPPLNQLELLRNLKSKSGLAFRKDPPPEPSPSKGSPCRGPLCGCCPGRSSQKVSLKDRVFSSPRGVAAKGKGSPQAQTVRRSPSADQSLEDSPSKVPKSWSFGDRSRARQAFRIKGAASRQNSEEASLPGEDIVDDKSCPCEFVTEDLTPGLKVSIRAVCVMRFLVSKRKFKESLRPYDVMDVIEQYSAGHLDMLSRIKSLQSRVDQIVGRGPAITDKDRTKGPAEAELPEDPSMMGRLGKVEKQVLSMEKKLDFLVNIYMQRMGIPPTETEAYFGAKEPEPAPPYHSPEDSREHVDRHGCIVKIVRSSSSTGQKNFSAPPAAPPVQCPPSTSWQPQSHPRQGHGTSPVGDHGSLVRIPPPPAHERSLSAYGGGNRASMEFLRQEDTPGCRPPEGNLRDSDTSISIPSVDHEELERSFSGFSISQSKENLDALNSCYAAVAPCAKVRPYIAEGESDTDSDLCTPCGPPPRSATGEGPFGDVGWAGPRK
T1 sequence (O43525 whole entry): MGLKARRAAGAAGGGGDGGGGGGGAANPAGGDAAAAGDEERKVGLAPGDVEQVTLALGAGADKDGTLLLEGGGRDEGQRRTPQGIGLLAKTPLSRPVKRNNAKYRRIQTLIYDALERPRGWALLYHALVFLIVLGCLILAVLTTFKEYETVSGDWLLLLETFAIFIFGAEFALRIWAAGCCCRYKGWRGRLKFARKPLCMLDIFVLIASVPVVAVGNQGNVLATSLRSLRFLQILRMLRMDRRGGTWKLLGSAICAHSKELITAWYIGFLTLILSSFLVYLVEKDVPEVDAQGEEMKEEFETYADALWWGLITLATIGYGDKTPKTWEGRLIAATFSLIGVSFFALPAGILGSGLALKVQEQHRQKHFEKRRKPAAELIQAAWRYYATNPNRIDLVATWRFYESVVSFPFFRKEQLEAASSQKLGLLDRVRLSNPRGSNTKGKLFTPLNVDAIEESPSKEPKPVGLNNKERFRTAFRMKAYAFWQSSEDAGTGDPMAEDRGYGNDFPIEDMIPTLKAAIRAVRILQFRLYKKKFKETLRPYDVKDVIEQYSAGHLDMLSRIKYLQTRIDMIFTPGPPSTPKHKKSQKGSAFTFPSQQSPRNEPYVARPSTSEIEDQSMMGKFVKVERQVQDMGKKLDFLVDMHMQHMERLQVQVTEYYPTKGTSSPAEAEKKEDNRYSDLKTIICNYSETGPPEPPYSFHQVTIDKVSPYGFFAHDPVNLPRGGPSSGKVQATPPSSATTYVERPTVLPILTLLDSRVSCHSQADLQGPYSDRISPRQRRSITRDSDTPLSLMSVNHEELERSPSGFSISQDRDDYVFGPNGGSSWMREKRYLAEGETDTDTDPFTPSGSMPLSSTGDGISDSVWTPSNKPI
Method in brief: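 FLIPR thallium flux readout (BTC dye, 2 μM AM ester) in stably transfected KCNQ HEK-293 cells, chloride-free HEPES buffer pH 7.3, Tl2SO4 stimulus. IC50s were fitted with a single-site logistic equation across 10 points at 1:3 dilutions, defined as 50% of positive-control block; minimal active concentration meant signal ≥4 SD over DMSO controls.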

| SMILES | EC50 |
| --- | --- |
| CC1CCC(Nc2ncc(C(=O)NCc3ccc(F)cc3F)c(C3(c4ccc(Cl)cc4)CCC3)n2)CC1 (stereo not drawn) [Example 65, 5-pyrimidinecarboxamide, 4-[1-(4-chlorophenyl)cyclobutyl]-N-[(2,4-difluorophenyl)methyl]-2-[(4-methylcyclohexyl)amino]-] | 0.056 µM |

same assay, conditions: hQ23 cells, thallium flux

| SMILES | EC50 |
| --- | --- |
| CC1CCC(Nc2ncc(C(=O)NC(C)c3ccc(F)cc3)c(C3(c4ccc(Cl)cc4)CCCC3)n2)CC1 (stereo not drawn) [Example 197, 5-pyrimidinecarboxamide, 4-[1-(4-chlorophenyl)cyclopentyl]-N-[1-(4-fluorophenyl)ethyl]-2-[(4-methylcyclohexyl)amino]-] | 0.233 µM |
| CN1CCN(c2ncc(C(=O)NCc3ccc(C(F)(F)F)cc3)c(C3(c4ccc(Cl)cc4)CCCC3)n2)CC1 [Example 202, 5-pyrimidinecarboxamide, 4-[1-(4-chlorophenyl)cyclopentyl]-2-(4-methyl-1-piperazinyl)-N-[[4-(trifluoromethyl)phenyl]methyl]-] | 0.879 µM |
| CC1CCN(c2ncc(C(=O)NCc3ccc4c(c3)OCO4)c(C3(c4ccc(Cl)cc4)CCCC3)n2)CC1 [Example 154, 5-pyrimidinecarboxamide, N-(1,3-benzodioxol-5-ylmethyl)-4-[1-(4-chlorophenyl)cyclopentyl]-2-(4-methyl-1-piperidinyl)-] | 0.01 µM |
| CC1CCN(c2ncc(C(=O)NC(C)c3ccc(F)cc3)c(C3(c4ccc(Cl)cc4)CCCC3)n2)CC1 (stereo not drawn) [Example 199, 5-pyrimidinecarboxamide, 4-[1-(4-chlorophenyl)cyclopentyl]-N-[1-(4-fluorophenyl)ethyl]-2-(4-methyl-1-piperidinyl)-] | 0.061 µM |
| CC1CCN(c2ncc(C(=O)N3CCCC(C)C3)c(C3(c4ccc(F)cc4)CCCC3)n2)CC1 (stereo not drawn) [Example 218, piperidine, 1-[[4-[1-(4-fluorophenyl)cyclopentyl]-2-(4-methyl-1-piperidinyl)-5-pyrimidinyl]carbonyl]-3-methyl-] | 0.866 µM |
| CC1CCN(c2ncc(C(=O)NCc3ccc(F)cc3F)c(C3(c4ccc(Cl)cc4)CCCC3)n2)CC1 [Example 188, 5-pyrimidinecarboxamide, 4-[1-(4-chlorophenyl)cyclopentyl]-N-[(2,4-difluorophenyl)methyl]-2-(4-methyl-1-piperidinyl)-] | 0.016 µM |
| CC1CCN(c2ncc(C(=O)NCc3cccc4ccccc34)c(C3(c4ccc(Cl)cc4)CCCC3)n2)CC1 [Example 170, 5-pyrimidinecarboxamide, 4-[1-(4-chlorophenyl)cyclopentyl]-2-(4-methyl-1-piperidinyl)-N-(1-naphthalenylmethyl)-] | 0.01 µM |

same assay, conditions: hQ23 cells, thallium flux assay

| SMILES | EC50 |
| --- | --- |
| CC1CCCN(c2ncc(C(=O)NCc3ccc(Cl)c(Cl)c3)c(C3(c4ccc(F)cc4)CCCC3)n2)C1 (stereo not drawn) [Example 255, 5-pyrimidinecarboxamide, N-[(3,4-dichlorophenyl)methyl]-4-[1-(4-fluorophenyl)cyclopentyl]-2-(3-methyl-1-piperidinyl)-] | 0.01 µM |
| CC1CCCN(c2ncc(C(=O)NCc3ccc4c(c3)OCO4)c(C3(c4ccc(F)cc4)CCCC3)n2)C1 (stereo not drawn) [Example 236, 5-pyrimidinecarboxamide, N-(1,3-benzodioxol-5-ylmethyl)-4-[1-(4-fluorophenyl)cyclopentyl]-2-(3-methyl-1-piperidinyl)-] | 0.039 µM |
| CCC(C)Nc1ncc(C(=O)NCc2ccc3c(c2)OCO3)c(C2(c3ccc(F)cc3)CCCC2)n1 (stereo not drawn) [Example 238, 5-pyrimidinecarboxamide, N-(1,3-benzodioxol-5-ylmethyl)-4-[1-(4-fluorophenyl)cyclopentyl]-2-[(1-methylpropyl)amino]-] | 0.344 µM |
| CC1CCN(c2ncc(C(=O)NCc3ccc4c(c3)OCO4)c(C3(c4ccc(F)cc4)CCCC3)n2)CC1 [Example 237, 5-pyrimidinecarboxamide, N-(1,3-benzodioxol-5-ylmethyl)-4-[1-(4-fluorophenyl)cyclopentyl]-2-(4-methyl-1-piperidinyl)-] | 0.54 µM |
